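Each compound was tested at five concentrations against cells in 96-well plates for 48 hours. At the GI50, growth is halved.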 Activity calls are given as the source filed them. No stated cut-off is given here; in the data, active = GI50 up to about 1.1 µM and inactive = higher.
Experiments:
Assay in all cases: NCI-60 cell line screen, 48 h
SW-620 = test system: SW-620
M14 = test system: M14
786-0 = test system: 786-0
HT-29 = test system: HT-29
ACHN = test system: ACHN
SF-295 = test system: SF-295
UACC-257 = test system: UACC-257
U-251 = test system: U-251
A549 = test system: A549
SR = test system: SR
UO-31 = test system: UO-31
IGROV-1 = test system: IGROV-1
MOLT-4 = test system: MOLT-4
NCI-H226 = test system: NCI-H226
KM12 = test system: KM12
SK-MEL-2 = test system: SK-MEL-2
OVCAR-5 = test system: OVCAR-5

Measured: GI50

CC1(C)Oc2ccccc2[N+]([O-])=C1c1ccccc1
inactive: SW-620 > 100 µM | M14 > 100 µM | 786-0 > 100 µM | HT-29 > 100 µM | ACHN > 100 µM | SF-295 > 100 µM | UACC-257 > 100 µM | U-251 > 100 µM | A549 > 100 µM | SR > 100 µM | UO-31 > 100 µM | IGROV-1 > 100 µM | MOLT-4 > 100 µM

O=C1OC(=O)c2c1c(-c1ccccc1)nc1ccccc21
inactive: SW-620 > 100 µM | M14 > 100 µM | NCI-H226 > 100 µM | 786-0 > 100 µM | HT-29 > 100 µM | SF-295 > 100 µM | UACC-257 > 100 µM | U-251 > 100 µM | KM12 > 100 µM | A549 > 100 µM | SK-MEL-2 > 100 µM | UO-31 > 100 µM | IGROV-1 > 100 µM | MOLT-4 > 100 µM

Cc1cc(S(=O)(=O)O)c(NC(=O)C(=O)Cc2cc(=O)oc3cc(O)ccc23)cc1Cl
inactive: SW-620 > 100 µM | M14 > 100 µM | NCI-H226 > 100 µM | 786-0 > 100 µM | HT-29 > 100 µM | ACHN > 100 µM | SF-295 > 100 µM | UACC-257 > 100 µM | U-251 > 100 µM | KM12 > 100 µM | A549 > 100 µM | SR > 100 µM | SK-MEL-2 > 100 µM | UO-31 > 100 µM | IGROV-1 > 100 µM | OVCAR-5 > 100 µM | MOLT-4 > 100 µM

COC(=O)C(=Cc1cc(OC)c(OC)c(OC)c1-c1cc2c(cc1C1(C)OCCS1)OCO2)C(=O)OC (stereo not drawn)
inactive: SW-620 33.2 µM | NCI-H226 32.2 µM | 786-0 38.8 µM | HT-29 37 µM | ACHN 55.3 µM | SF-295 31.6 µM | UACC-257 31.4 µM | U-251 45.5 µM | KM12 19.1 µM | A549 29.1 µM | SR 22.2 µM | SK-MEL-2 21.1 µM | IGROV-1 16.3 µM | OVCAR-5 > 100 µM | MOLT-4 24 µM

O=C(c1ccccc1)n1cc(/C=C/[N+](=O)[O-])c2ccccc21
inactive: SW-620 19.6 µM | M14 20.8 µM | 786-0 20.2 µM | HT-29 44.2 µM | ACHN > 100 µM | SF-295 42 µM | UACC-257 21.2 µM | U-251 18.5 µM | KM12 18.5 µM | A549 85.1 µM | SR 19.7 µM | SK-MEL-2 19.9 µM | UO-31 20.1 µM | IGROV-1 22.6 µM | OVCAR-5 > 100 µM | MOLT-4 17.2 µM

COC(=O)c1sc(=NC(=S)N2CCCCC2)sc1C(=O)OC
inactive: SW-620 > 100 µM | M14 > 100 µM | NCI-H226 > 100 µM | 786-0 > 100 µM | ACHN > 100 µM | UACC-257 > 100 µM | U-251 32.4 µM | KM12 91.4 µM | SR 22.9 µM | SK-MEL-2 > 100 µM | UO-31 98.4 µM | IGROV-1 > 100 µM | MOLT-4 > 100 µM

CC(C)c1ccccc1NC(=O)C(=O)Cc1nc2ccccc2s1
inactive: SW-620 > 100 µM | M14 > 100 µM | NCI-H226 > 100 µM | 786-0 > 100 µM | HT-29 > 100 µM | ACHN > 100 µM | SF-295 > 100 µM | UACC-257 > 100 µM | U-251 > 100 µM | KM12 > 100 µM | A549 > 100 µM | SR > 100 µM | SK-MEL-2 > 100 µM | UO-31 > 100 µM | IGROV-1 > 100 µM | MOLT-4 > 100 µM

Nc1ncn([C@@H]2C=C(CO)C(O)C2O)c(=O)n1 (stereo partly drawn)
inactive: SW-620 69.8 µM | M14 60.1 µM | NCI-H226 95.1 µM | 786-0 55.5 µM | HT-29 57.4 µM | ACHN 51.4 µM | SF-295 > 100 µM | UACC-257 > 100 µM | U-251 > 100 µM | KM12 85.3 µM | A549 66.5 µM | SK-MEL-2 > 100 µM | UO-31 50.7 µM | IGROV-1 70.1 µM | OVCAR-5 > 100 µM | MOLT-4 56.5 µM

CC1=C(C(=O)Nc2ccc([N+](=O)[O-])cc2)C(c2ccccc2F)C(C(=O)Nc2ccc([N+](=O)[O-])cc2)=C(C)N1
inactive: SW-620 21.8 µM | M14 15.1 µM | NCI-H226 14 µM | 786-0 20.8 µM | HT-29 20.1 µM | ACHN 4.21 µM | SF-295 20.3 µM | UACC-257 15 µM | U-251 14.9 µM | KM12 9.14 µM | A549 9.64 µM | SK-MEL-2 9.31 µM | UO-31 6.61 µM | IGROV-1 12.8 µM | OVCAR-5 35.1 µM | MOLT-4 3.61 µM

CCC1CN2CCc3cc(OC)c(OC)cc3C2CC1CC1c2cc(OC)c(OC)cc2CCN1C(=O)CNC(=O)OC(C)(C)C (stereo not drawn)
inactive: SW-620 4.07 µM | M14 > 10 µM | NCI-H226 18.3 µM | 786-0 4.08 µM | HT-29 3.49 µM | ACHN 21.5 µM | SF-295 3.9 µM | UACC-257 21.4 µM | U-251 5.51 µM | KM12 3.31 µM | A549 4.57 µM | SK-MEL-2 12.4 µM | UO-31 24.4 µM | IGROV-1 19.5 µM | OVCAR-5 24.3 µM | MOLT-4 3.44 µM

CCOC(=O)C1=C(OC(OCC)C([Se]c2ccccc2)C(C)C)CCC1 (stereo not drawn)
inactive: M14 15.8 µM | NCI-H226 13.7 µM | 786-0 6.82 µM | HT-29 19.1 µM | ACHN 23.4 µM | SF-295 13.4 µM | UACC-257 23.2 µM | U-251 4.29 µM | KM12 41.1 µM | A549 28.8 µM | SR 3.2 µM | SK-MEL-2 15.1 µM | UO-31 24.4 µM | IGROV-1 18.3 µM | OVCAR-5 22.3 µM | MOLT-4 14.7 µM

COc1ccc(O)cc1 [MEQUINOL]
inactive: SW-620 > 100 µM | M14 53.5 µM | NCI-H226 > 100 µM | 786-0 92 µM | HT-29 > 100 µM | ACHN 31.3 µM | UACC-257 > 100 µM | U-251 > 100 µM | KM12 42.7 µM | A549 > 100 µM | SR 89.7 µM | SK-MEL-2 > 100 µM | UO-31 57.4 µM | IGROV-1 > 100 µM | OVCAR-5 35.4 µM | MOLT-4 74.3 µM

CCOP(=O)(OCC)C1=NC=CC=CC1n1c(-c2ccccc2)nn(CC)c1=O (stereo not drawn)
inactive: SW-620 > 100 µM | NCI-H226 > 100 µM | 786-0 > 100 µM | HT-29 > 100 µM | ACHN > 100 µM | SF-295 > 100 µM | UACC-257 > 100 µM | U-251 > 100 µM | KM12 > 100 µM | A549 > 100 µM | SR > 100 µM | SK-MEL-2 > 100 µM | IGROV-1 > 100 µM | MOLT-4 > 100 µM

CC(=O)C1C(=O)C(=O)N(c2ccccc2C(C)C)C1=O (stereo not drawn)
inactive: SW-620 > 100 µM | M14 > 100 µM | NCI-H226 > 100 µM | 786-0 > 100 µM | HT-29 > 100 µM | ACHN > 100 µM | SF-295 > 100 µM | UACC-257 > 100 µM | U-251 > 100 µM | KM12 > 100 µM | A549 > 100 µM | SK-MEL-2 > 100 µM | UO-31 > 100 µM | IGROV-1 > 100 µM | OVCAR-5 > 100 µM | MOLT-4 > 100 µM

CC(C1=CC=C2[C@@H]3CCC4CC(N(C)C)CC[C@]4(C)C3CC[C@]12C)N(C)C=O (stereo partly drawn)
inactive: SW-620 > 100 µM | M14 > 100 µM | 786-0 > 100 µM | HT-29 25.3 µM | ACHN > 100 µM | SF-295 > 100 µM | U-251 > 100 µM | KM12 > 100 µM | A549 > 100 µM | SK-MEL-2 > 100 µM | UO-31 > 100 µM | IGROV-1 > 100 µM | OVCAR-5 > 100 µM | MOLT-4 > 100 µM

Cc1cccc2c1Sc1ccccc1C2NC(=O)CCN(C)C (stereo not drawn)
inactive: SW-620 > 100 µM | M14 > 100 µM | NCI-H226 > 100 µM | 786-0 > 10 µM | HT-29 > 100 µM | ACHN > 100 µM | UACC-257 > 100 µM | U-251 > 100 µM | A549 > 100 µM | SR > 100 µM | UO-31 > 100 µM | IGROV-1 > 100 µM | OVCAR-5 > 100 µM | MOLT-4 > 100 µM

COC(=O)/C(C#N)=C1\CCC(OC)N1 (stereo not drawn)
inactive: SW-620 > 100 µM | M14 > 100 µM | NCI-H226 > 100 µM | 786-0 > 100 µM | HT-29 > 100 µM | ACHN > 100 µM | SF-295 > 100 µM | UACC-257 > 100 µM | U-251 > 100 µM | KM12 > 100 µM | A549 > 100 µM | SK-MEL-2 > 100 µM | UO-31 > 100 µM | IGROV-1 > 100 µM | OVCAR-5 > 100 µM | MOLT-4 > 100 µM

CC1C[C@]2(C[C@@H](C)C(=O)O2)O[C@@H]2CC3(C)[C@@H]4CCC5C(C)(C)OC(=O)C[C@H]6OO[C@]4(CC[C@]3(C)C12)CC56O (stereo partly drawn)
inactive: SW-620 > 100 µM | M14 > 100 µM | NCI-H226 > 100 µM | 786-0 > 100 µM | HT-29 > 100 µM | ACHN > 100 µM | SF-295 > 100 µM | UACC-257 > 100 µM | U-251 > 100 µM | A549 > 100 µM | SR > 100 µM | SK-MEL-2 > 100 µM | UO-31 > 100 µM | IGROV-1 > 100 µM | OVCAR-5 > 100 µM

— ChEMBL document CHEMBL1201862, “PubChem BioAssay data set” (2004)
